Reference: patent US12466822B2, “Heterocyclic compounds as immunomodulators” (Incyte Corporation, priority 2016, dated 2025)

The compounds below were run against T1, PD-1/PD-L1 protein/protein interaction (recombinant human PD-L1 protein (19-238), recombinant human PD-1 protein (25-167)) (Homo sapiens, UniProt Q9NZQ7) (assay: PD-1/PD-L1 Homogeneous Time-Resolved Fluorescence (HTRF) Binding Assay). Conditions: 25° C., PBS buffer (pH 7.4), 40 minutes preincubation with inhibitors.
T1 construct: Recombinant human PD-L1 protein (19-238) with a His-tag at the C-terminus; purchased AcroBiosystems PD1-H5229 (PD-L1-His); PD1-H5257 (PD-1-Fc)
T1 sequence (Q9NZQ7 19-238): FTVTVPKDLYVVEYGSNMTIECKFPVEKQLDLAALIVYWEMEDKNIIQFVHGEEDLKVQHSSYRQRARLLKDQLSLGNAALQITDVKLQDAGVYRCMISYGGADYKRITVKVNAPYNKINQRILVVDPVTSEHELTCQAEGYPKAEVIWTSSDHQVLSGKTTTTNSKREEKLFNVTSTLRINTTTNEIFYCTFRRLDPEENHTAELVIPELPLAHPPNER
In short: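 HTRF read-out (665/620 nm) after 60 min at 25 °C with 1 nM Eu anti-human IgG and 20 nM APC anti-His. Beforehand, inhibitors were preincubated 40 min with Fc-PD-1 (25-167, […] as listed) and His-PD-L1 (19-238, 10 nM) in PBS pH 7.4 with Tween-20, BSA, 1% DMSO; IC50 from log-concentration curve.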
Work on Cc1c(Nc2ncnc3cc(CN4CC[C@@H](O)C4)cnc23)cccc1-c1cccc(NC(=O)c2nc3c(n2C)CCN(C[C@H]2CC[C@H](C(=O)O)CC2)C3)c1Cl [Example 69, trans 4-((2-(2-chloro-3′-(7-(((R)-3-hydroxypyrrolidin-1-yl)methyl)pyrido[3,2-d]pyrimidin-4-ylamino)-2′-methylbiphenyl-3-ylcarbamoyl)-1-methyl-6,7-dihydro-1H-imidazo[4,5-c]pyridin-5(4H)-yl)methyl)cyclohexanecarboxylic acid] yielded an IC50 of no more than 10 nM.
Compound Cc1c(Nc2nccc3cc(CN4CC[C@@H](O)C4)cnc23)cccc1-c1cccc(Nc2nccc3nc(CN4CC[C@@H](C(=O)O)C4)cnc23)c1C [Example 70, (R)-1-((5-(3′-(3-(((R)-3-hydroxypyrrolidin-1-yl)methyl)-1,7-naphthyridin-8-ylamino)-2,2′-dimethylbiphenyl-3-ylamino)pyrido[4,3-b]pyrazin-2-yl)methyl)pyrrolidine-3-carboxylic acid] has an IC50 of no more than 10 nM.
For Cc1c(Nc2nccc3cc(CN4CC[C@@H](C(=O)O)C4)cnc23)cccc1-c1cccc(Nc2nccc3cc(C4CCCN4)cnc23)c1C (stereo partly drawn) [Example 71, (3R)-1-((8-(2,2′-dimethyl-3′-(3-(pyrrolidin-2-yl)-1,7-naphthyridin-8-ylamino)biphenyl-3-ylamino)-1,7-naphthyridin-3-yl)methyl)pyrrolidine-3-carboxylic acid], the IC50 was no more than 10 nM.
OCCNCc1cnc2c(Nc3cccc(-c4cccc(Nc5nccc6cc(CN7CC[C@@H](O)C7)cnc56)c4Cl)c3Cl)nccn12 [Example 72, (R)-1-((8-(2,2′-dichloro-3′-(3-((2-hydroxyethylamino)methyl)imidazo[1,2-a]pyrazin-8-ylamino)biphenyl-3-ylamino)-1,7-naphthyridin-3-yl)methyl)pyrrolidin-3-ol] was tested, and the IC50 was no more than 10 nM.
For Cc1c(Nc2nccc3cc(CN4CCCC4)cnc23)cccc1-c1cccc(Nc2nccc3cc(CN4CC[C@@H](O)C4)cnc23)c1C [Example 73, (R)-1-((8-((2,2′-dimethyl-3′-((3-(pyrrolidin-1-ylmethyl)-1,7-naphthyridin-8-yl)amino)-[1,1′-biphenyl]-3-yl)amino)-1,7-naphthyridin-3-yl)methyl)pyrrolidin-3-ol], the IC50 was no more than 10 nM.
Work on Cc1c(Nc2nccc3cc(CN4CC[C@H](O)C4)cnc23)cccc1-c1cccc(Nc2nccc3cc(CN4CC[C@@H](O)C4)cnc23)c1Cl [Example 74, (S)-1-((8-((2′-chloro-3′-((3-(((R)-3-hydroxypyrrolidin-1-yl)methyl)-1,7-naphthyridin-8-yl)amino)-2-methyl-[1,1′-biphenyl]-3-yl)amino)-1,7-naphthyridin-3-yl)methyl)pyrrolidin-3-ol] yielded an IC50 of no more than 10 nM.
Work on Cc1c(Nc2nccc3cc(CN4CC(C(=O)O)C4)cnc23)cccc1-c1cccc(Nc2nccc3cc(CN4CC[C@@H](O)C4)cnc23)c1Cl [Example 75, (R)-1-((8-((2′-chloro-3′-((3-((3-hydroxypyrrolidin-1-yl)methyl)-1,7-naphthyridin-8-yl)amino)-2-methyl-[1,1′-biphenyl]-3-yl)amino)-1,7-naphthyridin-3-yl)methyl)azetidine-3-carboxylic acid] yielded an IC50 of no more than 10 nM.
For C[C@@]1(O)CCN(Cc2cnc3c(Nc4cccc(-c5cccc(Nc6nccc7cc(CN8CC[C@@H](O)C8)cnc67)c5Cl)c4Cl)nccc3c2)C1 [Example 76, (R)-1-((8-((2,2′-dichloro-3′-((3-(((R)-3-hydroxypyrrolidin-1-yl)methyl)-1,7-naphthyridin-8-yl)amino)-[1,1′-biphenyl]-3-yl)amino)-1,7-naphthyridin-3-yl)methyl)-3-methylpyrrolidin-3-ol], the IC50 was no more than 10 nM.
In the case of OCCNCc1cnc2c(Nc3cccc(-c4cccc(Nc5nccc6cc(CN7CC[C@@H](O)C7)cnc56)c4Cl)c3Cl)nccc2c1 [Example 77, (R)-1-((8-((2,2′-dichloro-3′-((3-(((2-hydroxyethyl)amino)methyl)-1,7-naphthyridin-8-yl)amino)-[1,1′-biphenyl]-3-yl)amino)-1,7-naphthyridin-3-yl)methyl)pyrrolidin-3-ol], the IC50 is reported as no more than 10 nM.
With O=C(O)[C@@H]1CCN(Cc2cnc3c(Nc4cccc(-c5cccc(Nc6nccc7cc(CN8CC[C@@H](O)C8)cnc67)c5Cl)c4Cl)nccc3c2)C1 [Example 78, (R)-1-((8-((2,2′-dichloro-3′-((3-(((R)-3-hydroxypyrrolidin-1-yl)methyl)-1,7-naphthyridin-8-yl)amino)-[1,1′-biphenyl]-3-yl)amino)-1,7-naphthyridin-3-yl)methyl)pyrrolidine-3-carboxylic acid] the IC50 was no more than 10 nM.
Work on Cc1c(Nc2nccc3cc(CN4CC[C@@H](O)C4)cnc23)cccc1-c1cccc(Nc2nccc3cc(CN4CC[C@@H](C(=O)O)C4)cnc23)c1Cl [Example 79, (R)-1-((8-((2-chloro-3′-((3-(((R)-3-hydroxypyrrolidin-1-yl)methyl)-1,7-naphthyridin-8-yl)amino)-2′-methyl-[1,1′-biphenyl]-3-yl)amino)-1,7-naphthyridin-3-yl)methyl)pyrrolidine-3-carboxylic acid] yielded an IC50 of no more than 10 nM.
Cc1c(Nc2nccc3cc(CN4CC[C@@H](O)C4)cnc23)cccc1-c1cccc(Nc2nccc3cc(CN4CC(C(=O)O)C4)cnc23)c1Cl [Example 80, (R)-1-((8-((2-chloro-3′-((3-((3-hydroxypyrrolidin-1-yl)methyl)-1,7-naphthyridin-8-yl)amino)-2′-methyl-[1,1′-biphenyl]-3-yl)amino)-1,7-naphthyridin-3-yl)methyl)azetidine-3-carboxylic acid] gave an IC50 of no more than 10 nM.
Cc1c(Nc2nccc3cc(CN4CC[C@@H](O)C4)cnc23)cccc1-c1cccc(Nc2nccc3cc(CNCCC(=O)O)cnc23)c1Cl [Example 81, (R)-3-(((8-((2-chloro-3′-((3-((3-hydroxypyrrolidin-1-yl)methyl)-1,7-naphthyridin-8-yl)amino)-2′-methyl-[1,1′-biphenyl]-3-yl)amino)-1,7-naphthyridin-3-yl)methyl)amino)propanoic acid] gave an IC50 of no more than 10 nM.
For O=C(O)[C@@H]1CCN(Cc2cnc3c(Nc4cccc(-c5cccc(Nc6nccc7cc(CN8CC[C@H](O)C8)cnc67)c5Cl)c4Cl)nccc3c2)C1 [Example 82, (R)-1-((8-((2,2′-dichloro-3′-((3-(((S)-3-hydroxypyrrolidin-1-yl)methyl)-1,7-naphthyridin-8-yl)amino)-[1,1′-biphenyl]-3-yl)amino)-1,7-naphthyridin-3-yl)methyl)pyrrolidine-3-carboxylic acid], the IC50 was no more than 10 nM.
With O=C(O)[C@H]1CCN(Cc2cnc3c(Nc4cccc(-c5cccc(Nc6nccc7cc(CN8CC[C@H](O)C8)cnc67)c5Cl)c4Cl)nccc3c2)C1 [Example 83, (S)-1-((8-((2,2′-dichloro-3′-((3-(((S)-3-hydroxypyrrolidin-1-yl)methyl)-1,7-naphthyridin-8-yl)amino)-[1,1′-biphenyl]-3-yl)amino)-1,7-naphthyridin-3-yl)methyl)pyrrolidine-3-carboxylic acid] the IC50 was no more than 10 nM.
With Cc1c(Nc2nccc3cc(CN4CC[C@@H](C(=O)O)C4)cnc23)cccc1-c1cccc(-c2nc3c(o2)CN(C(=O)CN(C)C)C3)c1C [Example 84, (R)-1-((8-((3′-(5-(dimethylglycyl)-5,6-dihydro-4H-pyrrolo[3,4-d]oxazol-2-yl)-2,2′-dimethyl-[1,1′-biphenyl]-3-yl)amino)-1,7-naphthyridin-3-yl)methyl)pyrrolidine-3-carboxylic acid] the IC50 was no more than 10 nM.
Cc1c(Nc2nccc3cc(CN4CC[C@@H](C(=O)O)C4)cnc23)cccc1-c1cccc(-c2nc3c(s2)CN(C(=O)CN(C)C)C3)c1C [Example 85, (R)-1-((8-((3′-(5-(dimethylglycyl)-5,6-dihydro-4H-pyrrolo[3,4-d]thiazol-2-yl)-2,2′-dimethyl-[1,1′-biphenyl]-3-yl)amino)-1,7-naphthyridin-3-yl)methyl)pyrrolidine-3-carboxylic acid] showed an IC50 of no more than 10 nM.
Cc1c(Nc2nccc3cc(CN4CC[C@@H](O)C4)cnc23)cccc1-c1cccc(-c2nc3c(s2)CN(C(=O)CN2CC[C@@H](O)C2)C3)c1C [Example 86, 2-((R)-3-hydroxypyrrolidin-1-yl)-1-(2-(3′-((3-(((R)-3-hydroxypyrrolidin-1-yl)methyl)-1,7-naphthyridin-8-yl)amino)-2,2′-dimethyl-[1,1′-biphenyl]-3-yl)-4,6-dihydro-5H-pyrrolo[3,4-d]thiazol-5-yl)ethan-1-one] showed an IC50 of no more than 10 nM.
In the case of Cc1c(Nc2nccc3cc(CN4CC[C@@](C)(C(=O)O)C4)cnc23)cccc1-c1cccc(-c2nc3c(s2)CN(C(=O)CN(C)C)C3)c1C [Example 87, (R)-1-((8-((3′-(5-(dimethylglycyl)-5,6-dihydro-4H-pyrrolo[3,4-d]thiazol-2-yl)-2,2′-dimethyl-[1,1′-biphenyl]-3-yl)amino)-1,7-naphthyridin-3-yl)methyl)-3-methylpyrrolidine-3-carboxylic acid], the IC50 is reported as no more than 10 nM.
Cc1c(Nc2nccc3cc(CN4CC(C(=O)O)C4)cnc23)cccc1-c1cccc(-c2nc3c(s2)CN(C(=O)CN(C)C)C3)c1C [Example 88, 1-((8-((3′-(5-(dimethylglycyl)-5,6-dihydro-4H-pyrrolo[3,4-d]thiazol-2-yl)-2,2′-dimethyl-[1,1′-biphenyl]-3-yl)amino)-1,7-naphthyridin-3-yl)methyl)azetidine-3-carboxylic acid] was tested, and the IC50 was no more than 10 nM.
Cc1c(-c2nc3c(s2)CN(C(=O)CN(C)C)C3)cccc1-c1cccc(Nc2nccc3cc(CN4CC[C@@H](C(=O)O)C4)cnc23)c1Cl [Example 89, (R)-1-((8-((2-chloro-3′-(5-(dimethylglycyl)-5,6-dihydro-4H-pyrrolo[3,4-d]thiazol-2-yl)-2′-methyl-[1,1′-biphenyl]-3-yl)amino)-1,7-naphthyridin-3-yl)methyl)pyrrolidine-3-carboxylic acid] was tested, and the IC50 was no more than 10 nM.
